Experiments:
Type in all cases: cell-based
M1 muscarinic receptor = target: T1, M1 muscarinic receptor (Homo sapiens, UniProt P11229); test: Functional mobilization of intracellular calcium (FLIPR) in CHO cells expressing M1; conditions: for EC50: CHO cells expressing M1, FLIPR calcium; for Emax: CHO, 100% = maximum response obtained with the Carbachol control, read-out: M1 Efficacy
T1 construct: expressed in transfected cells; host or cells: CHO (M1-CHO)
T1 sequence (P11229 1-460): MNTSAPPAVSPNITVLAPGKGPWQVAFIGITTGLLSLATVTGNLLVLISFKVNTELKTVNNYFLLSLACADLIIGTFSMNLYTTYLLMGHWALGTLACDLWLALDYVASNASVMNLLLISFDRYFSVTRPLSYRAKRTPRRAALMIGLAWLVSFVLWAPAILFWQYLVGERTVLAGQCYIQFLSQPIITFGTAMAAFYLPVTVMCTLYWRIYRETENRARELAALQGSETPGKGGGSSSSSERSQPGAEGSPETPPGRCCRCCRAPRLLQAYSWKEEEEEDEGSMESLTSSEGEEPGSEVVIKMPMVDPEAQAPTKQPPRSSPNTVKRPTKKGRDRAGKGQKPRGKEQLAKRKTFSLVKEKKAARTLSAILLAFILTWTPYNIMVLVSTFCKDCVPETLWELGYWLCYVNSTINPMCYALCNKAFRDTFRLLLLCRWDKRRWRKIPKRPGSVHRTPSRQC
Outline: (§1)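 Calcium flux is read on FLIPR over 60 sec at 488/540 nm in muscarinic-receptor CHO lines. Antagonist mode adds carbachol at EC80 after 15 min compound preincubation or with simultaneous co-application. Agonist mode adds compound alone. Cells carry Fluo-3 or Calcium 3 dye in probenecid-containing pH 7.4 buffer, 0.5% DMSO final.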

M2 muscarinic receptor = target: T2, M2 muscarinic receptor (Homo sapiens, UniProt P08172); test: Functional mobilization of intracellular calcium (FLIPR) in CHO cells expressing M2; conditions: for EC50: CHO cells expressing M2, FLIPR calcium; for Emax: CHO, 100% = maximum response obtained with the Carbachol control, read-out: M2 Efficacy
T2 construct: expressed in transfected cells; host or cells: CHO (M2-CHO)
T2 sequence (P08172 1-466): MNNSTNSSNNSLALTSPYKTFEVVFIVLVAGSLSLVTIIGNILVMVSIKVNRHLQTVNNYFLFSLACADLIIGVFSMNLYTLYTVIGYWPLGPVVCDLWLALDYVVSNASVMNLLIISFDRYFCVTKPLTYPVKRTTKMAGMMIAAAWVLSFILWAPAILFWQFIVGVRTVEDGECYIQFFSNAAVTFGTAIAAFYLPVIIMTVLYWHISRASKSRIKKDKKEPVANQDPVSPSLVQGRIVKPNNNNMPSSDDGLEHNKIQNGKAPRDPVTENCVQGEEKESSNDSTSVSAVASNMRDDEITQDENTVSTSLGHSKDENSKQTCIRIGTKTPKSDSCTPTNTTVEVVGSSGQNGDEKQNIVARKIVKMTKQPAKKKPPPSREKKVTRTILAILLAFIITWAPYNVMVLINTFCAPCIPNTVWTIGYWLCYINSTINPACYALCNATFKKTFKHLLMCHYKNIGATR
Outline: as §1

M3 muscarinic receptor = target: T3, M3 muscarinic receptor (Homo sapiens, UniProt P20309); test: Functional mobilization of intracellular calcium (FLIPR) in CHO cells expressing M3; conditions: for EC50: CHO cells expressing M3, FLIPR calcium; for Emax: CHO, 100% = maximum response obtained with the Carbachol control, read-out: M3 Efficacy
T3 construct: expressed in transfected cells; host or cells: CHO (M3-CHO)
Outline: as §1

M4 muscarinic receptor = target: T4, M4 muscarinic receptor (Homo sapiens, UniProt P08173); test: Functional mobilization of intracellular calcium (FLIPR) in CHO cells expressing M4; conditions: for EC50: CHO cells expressing M4, FLIPR calcium; for Emax: CHO, 100% = maximum response obtained with the Carbachol control, read-out: M4 Efficacy
T4 construct: expressed in transfected cells; host or cells: CHO (M4-CHO)
T4 sequence (P08173 1-479): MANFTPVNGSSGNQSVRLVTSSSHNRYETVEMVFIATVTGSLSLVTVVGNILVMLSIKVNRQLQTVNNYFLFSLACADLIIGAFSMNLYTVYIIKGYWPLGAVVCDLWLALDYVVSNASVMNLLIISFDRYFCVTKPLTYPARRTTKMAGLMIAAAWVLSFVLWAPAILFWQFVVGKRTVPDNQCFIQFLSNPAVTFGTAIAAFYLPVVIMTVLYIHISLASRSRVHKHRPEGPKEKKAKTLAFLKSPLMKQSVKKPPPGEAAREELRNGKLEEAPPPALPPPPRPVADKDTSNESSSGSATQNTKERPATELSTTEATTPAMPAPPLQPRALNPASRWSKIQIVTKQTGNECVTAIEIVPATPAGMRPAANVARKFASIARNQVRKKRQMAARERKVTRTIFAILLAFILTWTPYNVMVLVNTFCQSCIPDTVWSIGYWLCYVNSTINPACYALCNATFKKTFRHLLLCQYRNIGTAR
Outline: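 Read-out: FLIPR fluorescence (ex 488, em 540 nm) over 60 s. Recombinant CHO lines are dye-loaded (Fluo-3 AM or Calcium 3) with 1 mM probenecid. For antagonist mode, compound is pre-incubated 15 min, or co-applied, then carbachol is added at 3× EC80 per subtype.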

T3 sequence (P20309 whole entry): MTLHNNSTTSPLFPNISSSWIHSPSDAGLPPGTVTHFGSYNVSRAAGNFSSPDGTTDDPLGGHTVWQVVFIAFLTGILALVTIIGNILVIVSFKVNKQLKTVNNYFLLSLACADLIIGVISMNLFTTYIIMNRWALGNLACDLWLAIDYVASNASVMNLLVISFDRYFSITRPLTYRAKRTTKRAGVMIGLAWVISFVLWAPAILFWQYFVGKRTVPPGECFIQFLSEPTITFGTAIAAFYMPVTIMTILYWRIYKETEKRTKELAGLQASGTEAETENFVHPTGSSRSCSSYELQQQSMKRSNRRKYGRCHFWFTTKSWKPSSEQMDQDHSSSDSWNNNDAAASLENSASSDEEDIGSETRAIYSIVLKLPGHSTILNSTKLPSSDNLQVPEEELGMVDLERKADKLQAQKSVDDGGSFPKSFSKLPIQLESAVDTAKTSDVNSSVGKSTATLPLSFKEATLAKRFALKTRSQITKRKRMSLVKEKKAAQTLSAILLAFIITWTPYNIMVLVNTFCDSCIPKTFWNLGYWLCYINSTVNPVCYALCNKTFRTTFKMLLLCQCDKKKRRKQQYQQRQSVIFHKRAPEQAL

Row | SMILES | EC50 (M1 muscarinic receptor) [µM] | Emax (M1 muscarinic receptor) [%] | EC50 (M2 muscarinic receptor) [µM] | Emax (M2 muscarinic receptor) [%] | EC50 (M3 muscarinic receptor) [µM] | Emax (M3 muscarinic receptor) [%] | EC50 (M4 muscarinic receptor) [µM] | Emax (M4 muscarinic receptor) [%]
1 | CC(=O)N1CCC(C(=O)N(C)[C@H]2CCC3(CCN(CCC(C)(C)C)CC3)c3ccccc32)CC1 [compound 132] | 2 to 5 | 25 to 100 | > 5 | < 25 | > 5 | < 25 | < 2 | 25 to 100
2 | CC(C)(C)CCN1CCC2(CC[C@@H](NC(=O)C3CCCO3)c3ccc(F)cc32)CC1 (some centres unmarked) [compound 133] | < 2 | 25 to 100 | < 2 | 25 to 100 | > 5 | < 25 | < 2 | 25 to 100
3 | CC(C)(C)CCN1CCC2(CC[C@@H](NC(=O)Cc3cccnc3)c3ccccc32)CC1 [compound 134] | > 5 | < 25 | > 5 | < 25 | > 5 | < 25 | < 2 | 25 to 100
4 | CC(C)(C)CCN1CCC2(CC[C@H](NC(=O)CC3CCOCC3)c3ccccc32)CC1 [compound 135] | < 2 | 25 to 100 | > 5 | < 25 | > 5 | < 25 | < 2 | 25 to 100
5 | CCN(C(=O)Cc1cccnc1)[C@H]1CCC2(CCN(CCC(C)(C)C)CC2)c2ccccc21 [compound 136] | 2 to 5 | 25 to 100 | 2 to 5 | < 25 | > 5 | < 25 | < 2 | 25 to 100
6 | C[C@@H](C(=O)N[C@H]1CCC2(CCN(CCC(C)(C)C)CC2)c2ccccc21)N1CCCC1=O [compound 137] | < 2 | 25 to 100 | > 5 | < 25 | > 5 | < 25 | < 2 | 25 to 100
7 | CC(C)(C)CCN1CCC2(CC[C@H](NC(=O)CCN3CCCC3=O)c3ccc(F)cc32)CC1 [compound 138] | < 2 | 25 to 100 | < 2 | 25 to 100 | > 5 | < 25 | < 2 | 25 to 100
8 | C[C@@H](O)CC(=O)N[C@@H]1CCC2(CCN(CCC(C)(C)C)CC2)c2ccccc21 [compound 139] | 2 to 5 | < 25 | > 5 | < 25 | > 5 | < 25 | < 2 | 25 to 100
9 | CCOCC(=O)N(CC)[C@H]1CCC2(CCN(CCC(C)(C)C)CC2)c2ccccc21 [compound 140] | 2 to 5 | 25 to 100 | > 5 | < 25 | > 5 | < 25 | < 2 | 25 to 100
10 | CC#CCN(C(C)=O)[C@H]1CCC2(CCN(CCC(C)C)CC2)c2ccccc21 [compound 141] | < 2 | 25 to 100 | > 5 | < 25 | > 5 | < 25 | < 2 | 25 to 100
11 | CC(C)CCN1CCC2(CC[C@H](N3C(=O)CCC3=O)c3ccccc32)CC1 [compound 142] | 2 to 5 | 25 to 100 | > 5 | < 25 | > 5 | < 25 | > 5 | < 25
12 | CC(=O)N1CCCC(C(=O)N[C@@H]2CCC3(CCN(CCC(C)(C)C)CC3)c3ccccc32)C1 (some centres unmarked) [compound 143] | 2 to 5 | 25 to 100 | > 5 | < 25 | > 5 | < 25 | < 2 | 25 to 100
13 | CN1CC(C(=O)N[C@H]2CCC3(CCN(CCC(C)(C)C)CC3)c3ccccc32)CC1=O (some centres unmarked) [compound 144] | < 2 | 25 to 100 | < 2 | 25 to 100 | > 5 | < 25 | < 2 | 25 to 100
14 | CC(C)(C)CCN1CCC2(CC[C@H](NC(=O)CC3CCOCC3)c3ccc(F)cc32)CC1 [compound 145] | < 2 | 25 to 100 | < 2 | < 25 | > 5 | < 25 | < 2 | 25 to 100
15 | C[C@@H](C(=O)N[C@@H]1CCC2(CCN(CCC(C)(C)C)CC2)c2ccccc21)N1CCCC1=O [compound 146] | > 5 | 25 to 100 | > 5 | < 25 | > 5 | < 25 | < 2 | 25 to 100
16 | COCCC(=O)N[C@H]1CCC2(CCN(CCC(C)(C)C)CC2)c2ccccc21 [compound 147] | < 2 | 25 to 100 | < 2 | 25 to 100 | > 5 | < 25 | < 2 | 25 to 100
17 | CC(C)CCN1CCC2(CC[C@H](NC(=O)N(C)C)c3ccccc32)CC1 [compound 148] | > 5 | < 25 | > 5 | < 25 | > 5 | < 25 | 2 to 5 | 25 to 100
18 | CC(=O)N1CCCC[C@@H]1C(=O)N[C@@H]1CCC2(CCN(CCC(C)(C)C)CC2)c2cc(F)ccc21 [compound 149] | 2 to 5 | 25 to 100 | 2 to 5 | 25 to 100 | > 5 | < 25 | < 2 | 25 to 100
19 | CC(=O)N[C@H]1CCC2(CCN(CC=C(C)C)CC2)c2ccccc21 [compound 150] | > 5 | 25 to 100 | > 5 | < 25 | > 5 | < 25 | 2 to 5 | 25 to 100
20 | Cc1cc(C(=O)N[C@H]2CCC3(CCN(CCC(C)(C)C)CC3)c3ccccc32)nn1C [compound 151] | < 2 | 25 to 100 | > 5 | < 25 | > 5 | < 25 | < 2 | 25 to 100
21 | CC(C)(C)CCN1CCC2(CC[C@@H](NC(=O)CC3CCOCC3)c3ccccc32)CC1 [compound 152] | > 5 | < 25 | > 5 | < 25 | > 5 | < 25 | < 2 | 25 to 100
22 | CC(=O)N(C(C)C)[C@H]1CCC2(CCN(CCC(C)(C)C)CC2)c2ccccc21 [compound 154] | < 2 | 25 to 100 | > 5 | < 25 | > 5 | < 25 | < 2 | 25 to 100

Reference: patent publication US8003660B2, “Modulators of muscarinic receptors” (Vertex Pharmaceuticals Incorporated, priority 2006, dated 2011)
